Results as given in paper PMC10281804, “The structural basis of the talin–KANK1 interaction that coordinates the actin and microtubule cytoskeletons at focal adhesions” (Open Biology, 2023).

What was measured:
mCherry–KANK1 = experiment: MTS colocalization of truncated or mutated talin constructs with KANK1; type: cell-based, human; conditions: MTS colocalization assay, cBAK-tagged talin constructs
Source text: To examine the effect of these KANK1 mutations on talin interactions in cells, we next used a mitochondrial targeting system (MTS) which we previously used to screen for defined protein–protein interactions. In this assay, one protein is fused to a small peptide sequence from the pro-apoptotic protein BAK (cBAK) which leads to its insertion into the outer membrane of mitochondria. Proteins that interact with the cBAK-tagged protein will get recruited to mitochondria, and this recruitment can be verified either by visualizing colocalization using fluorescence microscopy (figure 4a) or by purification of mitochondria followed by detection of co-precipitates using biochemistry (figure 4b,c). […] To confirm that the interaction was meditated by the R7 domain, we performed the colocalization assays with truncated talin constructs. […]
(§1) Images of fixed samples in PBS were acquired at room temperature using an Olympus IX83 inverted microscope equipped with a 60×/1.42 PlanApo N oil objective and a QImaging Retiga R6 CCD camera, controlled by Metamorph software. Samples were illuminated using LEDs (UV/Cyan/Green-Yellow/Red, Lumencor) for fluorescence excitation; a Sedat filter set (DAPI/FITC/TRITC/Cy5, Chroma, 89000) was used.

[1] = test system: KANK1 localization to focal adhesions of NIH3T3 fibroblasts; experiment: KANK1 localization in vin880-expressing cells treated with ROCK inhibitor; type: cell-based, mouse
Procedure: NIH3T3 mouse fibroblasts and HEK293T human epithelial cells were obtained from the American Type Culture Collection (ATCC). The vinculin null and WT mouse embryonic fibroblasts (MEFs) originate from the Eileen Adamson laboratory. All cells were maintained in Dulbecco's Modified Eagle Medium (DMEM; Sigma) supplemented with 10% fetal bovine serum (FBS, Gibco), 1% L-glutamine (Sigma) and 1% non-essential amino acids (Sigma). Talin1&2 null cells were cultured in DMEM F-12 (Gibco) supplemented with 10% FBS, 1% L-glutamine, 1% non-essential amino acids and […] HEPES (Sigma). All cells were cultured at 37̊C supplied with 5% CO2 and 95% humidity. Transient transfections were performed using Lipofectamine LTX with Plus Reagent (Invitrogen) to NIH3T3 cells, Lipofectamine 2000 (Invitrogen) to talin null cells, and jetPRIME reagent (Polyplus) to MEFs and HEK293T cells, as per the manufacturer's instructions.
For fixed cell imaging, cells were cultured in glass-bottom dishes (IBL) coated with bovine fibronectin (Sigma) at a final concentration of 10 µg ml^−1. […]
as §1
FIJI-ImageJ [33] software was used to process all images. Cell-matrix adhesion size was quantified as described previously, by subtracting background signal using a rolling ball algorithm, followed by thresholding to select adhesion structures and the Analyze Particles function to quantify adhesions. […] Pearson's correlation coefficient of fluorescence signals (40 × 40 µm^2 square adhesion area) was measured by subtracting the background signal, followed by automatic thresholding and colocalization analysis using the Bioimaging and Optics Platform (BIOP) version JACoP plugin [34]. […]

Row | Compound | colocalization of talin construct with KANK1 (mCherry–KANK1) | KANK1 localization (in words) ([1]; NIH3T3 cells expressing vin880 treated with Y-27632) | Pearson's mean correlation coefficient of KANK1/paxillin overlap ([1]; NIH3T3 with GFP–vin880 and mCherry–KANK1, Y-27632 50 µM, 60 min, 20 images (40 × 40 µm^2) per group, ± s.d., water control r = 0.59 ± 0.05, p < 0.001 (Welch's t-test)) | Percentage of belt-positive FAs ([1]; NIH3T3 with GFP–vin880 and mCherry–KANK1, Y-27632 50 µM, 60 min, FAs over 0.3 µm^2, n = 17, ± s.d., water control 17.90 ± 3.27% (n = 28), p < 0.001 (Welch's t-test))
1 | GFP–talin1G1404L–cBAK: GFP–talin1–cBAK with the R7 G1404L mutation | prevented colocalization | – | – | –
2 | C[C@@H](N)[C@H]1CC[C@H](C(=O)Nc2ccncc2)CC1 [Y-27632] | – | KANK1 colocalized with paxillin in FAs throughout the whole FA structure | 0.82 ± 0.04 | 0.02 ± 0.10%
